Where a name gives a salt, the structure may show the parent alone.
The compounds below were run against T1, full length SGK1 (Homo sapiens, UniProt O00141) (assay: SGK1 inhibition Assay A (Caliper LabChip electrophoretic separation of fluorescent peptide substrate and phosphorylated product)). Settings: Assay A; 20 μM ATP, 40 min incubation; read-out: SGK1 IC50.
T1 construct: 125 μM full length SGK1 (Life Technologies Part #PR7358A); purchased Life Technologies PR7358A
T1 sequence (O00141 1-431): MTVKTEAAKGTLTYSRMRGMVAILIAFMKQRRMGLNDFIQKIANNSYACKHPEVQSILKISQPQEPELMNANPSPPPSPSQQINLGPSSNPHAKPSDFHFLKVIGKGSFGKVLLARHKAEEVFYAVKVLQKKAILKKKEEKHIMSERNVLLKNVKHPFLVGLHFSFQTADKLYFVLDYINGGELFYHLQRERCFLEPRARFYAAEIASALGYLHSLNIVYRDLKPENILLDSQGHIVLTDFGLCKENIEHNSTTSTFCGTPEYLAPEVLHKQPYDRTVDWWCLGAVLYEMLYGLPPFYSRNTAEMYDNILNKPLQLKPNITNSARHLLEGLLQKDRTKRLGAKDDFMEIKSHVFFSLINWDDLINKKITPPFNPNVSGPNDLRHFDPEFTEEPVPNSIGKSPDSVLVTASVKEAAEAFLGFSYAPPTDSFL
Format: biochemical
In the case of `Nc1ncnn2c(C3=CCN(C(=O)c4cncs4)C3)cc(N3CCC[C@@H](NC(=O)c4ccc(Cl)s4)C3)c12` [Example 886, (R)-N-(1-(4-amino-7-(1-(thiazole-5-carbonyl)-2,5-dihydro-1H-pyrrol-3-yl)pyrrolo[2,1-f][1,2,4]triazin-5-yl)piperidin-3-y1)-5-chlorothiophene-2-carboxamide], the IC50 is reported as 4 nM. `Nc1ncnn2c(C3=CCN(C(=O)c4ncco4)C3)cc(N3CCC[C@@H](NC(=O)c4ccc(Cl)s4)C3)c12` [Example 887, (R)-N-(1-(4-amino-7-(1-(oxazole-2-carbonyl)-2,5-dihydro-1H-pyrrol-3-y1)pyrrolo[2,1-f][1,2,4]triazin-5-y1)piperidin-3-y1)-5-chlorothiophene-2-carboxamide] was tested, and the IC50 was 8 nM. With `Nc1ncnn2c(C3=CCN(C(=O)[C@H]4CCOC4)C3)cc(N3CCC[C@@H](NC(=O)c4ccc(Cl)s4)C3)c12` [Example 888, N-((R)-1-(4-amino-7-(1-((S)-tetrahydrofuran-3-carbonyl)-2,5-dihydro-1H-pyrrol-3-yl)pyrrolo[2,1-f][1,2,4]triazin-5-yl)piperidin-3-y1)-5-chlorothiophene-2-carboxamide] the IC50 was 6 nM. With `Nc1ncnn2c(C3=CCN(C(=O)[C@H]4CCCN4)C3)cc(N3CCC[C@@H](NC(=O)c4ccc(Cl)s4)C3)c12` [Example 889, N-((R)-1-(7-(1-(D-proly1)-2,5-dihydro-1H-pyrrol-3-y1)-4-aminopyrrolo[2,1-f][1,2,4]triazin-5-yl)piperidin-3-y1)-5-chlorothiopbene-2-carboxamide, TFA] the IC50 was 21 nM. In the case of `Nc1ncnn2c(C3=CCN(C(=O)c4cnco4)C3)cc(N3CCC[C@@H](NC(=O)c4ccc(Cl)s4)C3)c12` [Example 890, (R)-N-(1-(4-amino-7-(1-(oxazole-5-carbony1)-2,5-dihydro-1H-pyrrol-3-y1)pyrrolo[2,1-f][1,2,4]triazin-5-yl)piperidin-3-y1)-5-chlorothiophene-2-carboxamide], the IC50 is reported as 1 nM. With `Nc1ncnn2c(C3=CCN(C(=O)[C@H]4CCNC4)C3)cc(N3CCC[C@@H](NC(=O)c4ccc(Cl)s4)C3)c12` [Example 891, N-((R)-1-(4-amino-7-(1-((S)-pyrrolidine-3-carbonyl)-2,5-dihydro-1H-pyrrol-3-y1)pyrrolo[2,1-f][1,2,4]triazin-5-y1)piperidin-3-y1)-5-chlorothiophene-2-carboxamide] the IC50 was 25 nM. In the case of `Nc1ncnn2c(C3=CCN(C(=O)[C@H]4CCCCN4)C3)cc(N3CCC[C@@H](NC(=O)c4ccc(Cl)s4)C3)c12` [Example 892, N-((R)-1-(4-amino-7-(1-((R)-piperidine-2-carbonyl)-2,5-dihydro-1H-pyrrol-3-y1)pyrrolo[2,1-f][1,2,4]triazin-5-yl)piperidin-3-y1)-5-chlorothiophene-2-carboxamide, TFA], the IC50 is reported as 15 nM. `Nc1ncnn2c(C3=CCN(C(=O)C4CCCOC4)C3)cc(N3CCC[C@@H](NC(=O)c4ccc(Cl)s4)C3)c12` (stereo partly drawn) [Example 893, N-((3R)-1-(4-amino-7-(1-(tetrahydro-2H-pyran-3-carbony1)-2,5-dihydro-1H-pyrrol-3-yl)pyrrolo[2,1-f][1,2,4]triazin-5-y1)piperidin-3-y1)-5-chlorothiophene-2-carboxamide] was tested, and the IC50 was 7 nM. `Nc1ncnn2c(C3=CCN(C(=O)C4CCNCC4)C3)cc(N3CCC[C@@H](NC(=O)c4ccc(Cl)s4)C3)c12` [Example 894, (R)-N-(1-(4-amino-7-(1-(piperidine-4-carbonyl)-2,5-dihydro-1H-pyrrol-3-yl)pyrrolo[2,1-f][1,2,4]triazin-5-yl)piperidin-3-y1)-5-chlorothiophene-2-carboxamide] showed an IC50 of 14 nM. `Nc1ncnn2c(C3=CCN(C(=O)[C@@H]4CCOC4)C3)cc(N3CCC[C@@H](NC(=O)c4ccc(Cl)s4)C3)c12` [Example 895, N-((R)-1-(4-amino-7-(1-((R)-tetrahydrofuran-3-carbonyl)-2,5-dihydro-1H-pyrrol-3-yl)pyrrolo[2,1-f][1,2,4]triazin-5-yl)piperidin-3-y1)-5~ chlorothiophene-2-carboxamide] was tested, and the IC50 was 5 nM. Work on `Nc1ncnn2c(C3=CCN(C(=O)[C@@H]4CCNC4)C3)cc(N3CCC[C@@H](NC(=O)c4ccc(Cl)s4)C3)c12` [Example 896, N-((R)-1-(4-amino-7-(1-((R)-pyrrolidine-3-carbonyl)-2,5-dihydro-1H-pyrrol-3-yl)pyrrolo[2,1-f][1,2,4]triazin-5-yl)piperidin-3-y1)-5-chlorothiophene-2-carboxamide, TFA] yielded an IC50 of 10 nM. `Nc1ncnn2c(C3=CCN(C(=O)C4CCCCO4)C3)cc(N3CCC[C@@H](NC(=O)c4ccc(Cl)s4)C3)c12` (stereo partly drawn) [Example 897, N-((3R)-1-(4-amino-7-(1-(tetrahydro-2H-pyran-2-carbony1)-2,5-dihydro-1H-pyrrol-3-y1)pyrrolo[2,1-f][1,2,4]triazin-5-yl)piperidin-3-y1)-5-chlorothiophene-2-carboxamide] was tested, and the IC50 was 8 nM. With `Nc1ncnn2c(C3=CCN(C(=O)C4CCOCC4)C3)cc(N3CCC[C@@H](NC(=O)c4ccc(Cl)s4)C3)c12` [Example 898, (R)-N-(1-(4-amino-7-(1-(tetrahydro-2H-pyran-4-carbony1)-2,5-dihydro-1H-pyrrol-3-yl)pyrrolo[2,1-f][1,2,4]triazin-5-y1)piperidin-3-y1)-5-chlorothiophene-2-carboxamide] the IC50 was 10 nM. Work on `Nc1ncnn2c(C3=CCN(C(=O)c4ccno4)C3)cc(N3CCC[C@@H](NC(=O)c4ccc(Cl)s4)C3)c12` [Example 899, (R)-N-(1-(4-amino-7-(1-(isoxazole-5-carbony1)-2,5-dihydro-1H-pyrrol-3-y1)pyrrolo[2,1-f][1,2,4]triazin-5-y1)piperidin-3-y1)-5-chlorothiophene-2-carboxamide] yielded an IC50 of 12 nM. In the case of `Nc1ncnn2c(C3=CCN(C(=O)c4ccccn4)C3)cc(N3CCC[C@@H](NC(=O)c4ccc(Cl)s4)C3)c12` [Example 900, (R)-N-(1-(4-amino-7-(1-picolinoy1-2,5-dihydro-1H-pyrrol-3-yl)pyrrolo[2,1-f][1,2,4]triazin-5-y1)piperidin-3-y1)-5-chlorothiophene-2-carboxamide], the IC50 is reported as 12 nM. Work on `Nc1ncnn2c(C3=CCN(C(=O)[C@@H]4CCCNC4)C3)cc(N3CCC[C@@H](NC(=O)c4ccc(Cl)s4)C3)c12` [Example 901, N-((R)-1-(4-amino-7-(1-((R)-piperidine-3-carbonyl)-2,5-dihydro-1H-pyrrol-3-y1)pyrrolo[2,1-f][1,2,4]triazin-5-y1)piperidin-3-y1)-5-chlorothiophene-2-carboxamide] yielded an IC50 of 29 nM. `Nc1ncnn2c(C3=CCN(C(=O)c4ccncc4)C3)cc(N3CCC[C@@H](NC(=O)c4ccc(Cl)s4)C3)c12` [Example 902, (R)-N-(1-(4-amino-7-(1-isonicotinoy1-2,5-dihydro-1H-pyrrol-3-yl)pyrrolo[2,1-f][1,2,4]triazin-5-yl)piperidin-3-y1)-5-chlorothiophene-2-carboxamide] showed an IC50 of 28 nM. `Nc1ncnn2c(C3=CCN(C(=O)[C@@H]4CCCO4)C3)cc(N3CCC[C@@H](NC(=O)c4ccc(Cl)s4)C3)c12` [Example 903, N-((R)-1-(4-amino-7-(1-((S)-tetrahydrofuran-2-carbony1)-2,5-dihydro-1H-pyrrol-3-yl)pyrrolo[2,1-f][1,2,4]triazin-5-yl)piperidin-3-y1)-5-chlorothiophene-2-carboxamide] gave an IC50 of 8 nM. Work on `Nc1ncnn2c(C3=CCN(C(=O)C4CCCS(=O)(=O)C4)C3)cc(N3CCC[C@@H](NC(=O)c4ccc(Cl)s4)C3)c12` (stereo partly drawn) [Example 904, N-((3R)-1-(4-amino-7-(1-(1,1-dioxidotetrahydro-2H-thiopyran-3-carbonyl)-2,5-dihydro-1H-pyrrol-3-yl)pyrrolo[2,1-f][1,2,4]triazin-5-y1)piperidin-3-y1)-5-chlorothiophene-2-carboxamide] yielded an IC50 of 12 nM. Work on `Nc1ncnn2c(C3=CCN(C(=O)C4CCS(=O)(=O)C4)C3)cc(N3CCC[C@@H](NC(=O)c4ccc(Cl)s4)C3)c12` (stereo partly drawn) [Example 905, N-((3R)-1-(4-amino-7-(1-(1,1-dioxidotetrahydrothiophene-3-carbonyl)-2,5-dihydro-1H-pyrrol-3-yl)pyrrolo[2,1-f][1,2,4]triazin-5-yl)piperidin-3-y1)-5-chlorothiophene-2-carboxamide] yielded an IC50 of 11 nM. With `CN(C)CCOc1cc(Cl)sc1C(=O)N[C@@H]1CCCN(c2cc(C3=CCN(C(=O)c4cnco4)C3)n3ncnc(N)c23)C1` [Example 907, (R)-N-(1-(4-amino-7-(1-(oxazole-5-carbonyl)-2,5-dihydro-1H-pyrrol-3-yl)pyrrolo[2,1-f][1,2,4]triazin-5-yI)piperidin~3-y1)-5-chloro-3-(2-(dimethylamino)ethoxy)thiophene-2-carboxamide] the IC50 was 4 nM. `CN(C)CCOc1cc(Cl)sc1C(=O)N[C@@H]1CCCN(c2cc(C3=CCN(C(=O)c4ncco4)C3)n3ncnc(N)c23)C1` [Example 908, (R)-N-(1-(4-amino-7-(1-(oxazole-2-carbonyl)-2,5-dihydro-1H-pyrrol-3-yl)pyrrolo[2,1-f][1,2,4]triazin-5-yl)piperidin-3-y1)-5-chloro-3-(2-(dimethylamino)ethoxy)thiophene-2-carboxamide] gave an IC50 of 3 nM. Work on `CN(C)CCOc1cc(Cl)sc1C(=O)N[C@@H]1CCCN(c2cc(C3=CCN(C(=O)C4CCCOC4)C3)n3ncnc(N)c23)C1` (stereo partly drawn) [Example 909, N-((3R)-1-(4-amino-7-(1-(tetrahydro-2H-pyran-3-carbonyl)-2,5-dihydro-1H-pyrrol-3~yl)pyrrolo[2,1-f][1,2,4]triazin-5-y1)piperidin-3-y1)-5-chloro-3-(2-(dimethylamino)ethoxy)thiophene-2-carboxamide] yielded an IC50 of 14 nM.
